Experiment [1] deals with T1, Btk (Tyr223) phosphorylation in Ramos cells (Homo sapiens, UniProt Q06187).
T1 construct: endogenous in cells; host or cells: Ramos cells (ATCC)
In words: Western blotting assay for Btk (Example 73). The experiment is classed as cell-based. The conditions noted are these: 45 min, 6 μg/mL anti-IgM, read-out: Btk Inhibition. How it is done: (§1) All cell lines were obtained from the American Type Culture Collection and were maintained at 37° C. with 5% CO2. Ramos cell line was maintained in media supplemented with 10% fetal bovine serum, penicillin (100 units/mL) and streptomycin (100 μg/mL). NK-92 cell line was maintained in media supplemented with 10% fetal bovine serum and 10% horse serum, penicillin (100 units/mL) and streptomycin (100 μg/mL), IL-2 10 ng/mL. Goat F(ab′)2 Anti-Human IgM-UNLB was obtained from SouthernBiotech. IL-2 was obtained from Peprotech.
Ramos cells were treated with compounds at indicated doses for 45 min at room temperature, followed by stimulation of 6 μg/mL of anti-IgM for 30 min, and then lysed. Western blots were performed on the cell lysate using Phospho-Btk (Tyr223), Phospho-Btk (Tyr551), Btk, Phospho-PLCγ2 (Tyr1217), PLCγ2, Phospho-p44/42 MAPK (Erk1/2) (Thr202/Tyr204) and p44/42 MAPK (Erk1/2) antibodies (Cell Signaling Technology). The density of blotting band was acquired using ImageJ software, and the IC50 of Btk (Tyr223) phosphorylation was fitted using a non-linear regression model by GraphPad Prism.

In experiment [2] the test system is Stat5 phosphorylation in NK-92 cells. In words: Western blotting assay for Stat5. The experiment is classed as cell-based. The settings on record: NK92, 1 hour, IL-2 stimulation, read-out: Stat5 inhibition. As to the method:
as §1
NK-92 cells were treated with compounds at the dosed indicated for 1 hour in incubator, followed by the IL-2 stimulation for 15 minutes. Cells were then collected and lysed to prepare the cellular extraction. Western blots were performed on cell lysate using Phospho-Jak3, Jak3, Phospho-Stat5, Stat5 antibodies (Cell Signaling Technology). The intensity of blotting band was acquired using Image Lab (Bio-Rad) software, and the IC50 of target was generated with GraphPad Prism.
(In western blotting, separated proteins are transferred to a membrane and probed.)

T1 sequence (Q06187 whole entry): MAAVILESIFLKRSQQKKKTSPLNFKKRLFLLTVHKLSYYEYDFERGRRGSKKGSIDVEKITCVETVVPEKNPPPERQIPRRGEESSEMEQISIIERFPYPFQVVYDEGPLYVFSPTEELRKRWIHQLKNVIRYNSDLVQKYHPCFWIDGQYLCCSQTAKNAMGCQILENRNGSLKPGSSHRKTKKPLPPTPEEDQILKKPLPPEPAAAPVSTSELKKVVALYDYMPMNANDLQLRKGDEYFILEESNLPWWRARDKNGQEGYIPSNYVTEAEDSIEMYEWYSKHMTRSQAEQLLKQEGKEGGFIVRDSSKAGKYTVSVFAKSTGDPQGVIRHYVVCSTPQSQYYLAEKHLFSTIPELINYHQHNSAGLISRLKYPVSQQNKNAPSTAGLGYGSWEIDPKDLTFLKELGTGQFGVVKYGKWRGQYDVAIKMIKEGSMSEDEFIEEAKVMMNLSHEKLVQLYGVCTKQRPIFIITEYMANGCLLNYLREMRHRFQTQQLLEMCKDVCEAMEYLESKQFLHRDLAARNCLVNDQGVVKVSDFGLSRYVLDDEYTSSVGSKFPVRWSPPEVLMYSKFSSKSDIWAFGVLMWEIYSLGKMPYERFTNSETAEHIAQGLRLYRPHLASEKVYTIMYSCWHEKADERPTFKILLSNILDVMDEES

For `C=CC(=O)Nc1cccc(Oc2nc(Nc3ccc(N[C@@H]4CCN(CCF)C4)cc3)ncc2F)c1` [Compound I-19, (R)—N-(3-(5-fluoro-2-(4-(1-(2-fluoroethyl)pyrrolidin-3-ylamino)phenylamino)pyrimidin-4-yloxy)phenyl)acrylamide], the IC50 in experiment [1] is not above 0.01 µM.

`C=CC(=O)Nc1cccc(Oc2nc(Nc3ccc(N4CCN(C)CC4)c(F)c3)ncc2O)c1` [Compound I-23a, N-(3-(2-(3-fluoro-4-(4-methylpiperazin-1-yl)phenylamino)-5-hydroxypyrimidin-4-yloxy)phenyl)acrylamide]: the IC50 in experiment [2] was not below 0.4 µM; in experiment [1], 0.01 to 0.1 µM.

Turning to `C=CC(=O)Nc1cccc(Oc2nc(Nc3ccc(OCCOC)c(F)c3)nc3[nH]ccc23)c1` [Compound I-24a, N-(3-(2-(3-fluoro-4-(2-methoxyethoxy)phenylamino)-7H-pyrrolo[2,3-d]pyrimidin-4-yloxy)phenyl)acrylamide], in experiment [1], the IC50 is 0.01 to 0.1 µM.

Take `C=CC(=O)Nc1cccc(Oc2nc(Nc3ccc(N(C)[C@H]4CCN(CCF)C4)cc3)nc3[nH]ccc23)c1` [Compound I-26a, (S)—N-(3-(2-(4-((1-(2-fluoroethyl)pyrrolidin-3-yl)(methyl)amino)phenylamino)-7H-pyrrolo[2,3-d]pyrimidin-4-yloxy)phenyl)acrylamide]: the IC50 in experiment [1] was 0.01 to 0.1 µM.

Turning to `C=CC(=O)Nc1cccc(Oc2nc(Nc3ccc(N[C@H]4CCN(CCF)C4)cc3)nc3[nH]ccc23)c1` [Compound I-27a, (S)—N-(3-(2-(4-(1-(2-fluoroethyl)pyrrolidin-3-ylamino)phenylamino)-7H-pyrrolo[2,3-d]pyrimidin-4-yloxy)phenyl)acrylamide], in experiment [1], the IC50 is not above 0.01 µM.

Consider `C=CC(=O)Nc1cccc(Oc2nc(Nc3cccc4c3CCN4CCOC)ncc2OC)c1` [Compound I-28a, N-(3-(5-methoxy-2-(1-(2-methoxyethyl)indolin-4-ylamino)pyrimidin-4-yloxy)phenyl)acrylamide], for which the IC50 in experiment [1] fell in the range of 0.01 to 0.1 µM.

In the case of `C=CC(=O)Nc1cccc(Nc2nc(Nc3cccc4c3CCN4CCOC)ncc2OC)c1` [Compound I-29a, N-(3-(5-methoxy-2-(1-(2-methoxyethyl)indolin-4-ylamino)pyrimidin-4-ylamino)phenyl)acrylamide], the IC50 in experiment [1] is not below 0.1 µM.

With `C=CC(=O)Nc1cccc(Oc2nc(Nc3ccc(N[C@H]4CCN(CCOC)C4)cc3)ncc2OC)c1` [Compound I-30a, (S)—N-(3-(5-methoxy-2-(4-(1-(2-methoxyethyl)pyrrolidin-3-ylamino)phenylamino)pyrimidin-4-yloxy)phenyl)acrylamide], the IC50 was not above 0.2 µM in experiment [2] and not above 0.01 µM in experiment [1].

In the case of `C=CC(=O)Nc1cccc(Nc2nc(Nc3ccc(N[C@H]4CCN(CCOC)C4)cc3)ncc2OC)c1` [Compound I-31a, (S)—N-(3-(5-methoxy-2-(4-(1-(2-methoxyethyl)pyrrolidin-3-ylamino)phenylamino)pyrimidin-4-ylamino)phenyl)acrylamide], the IC50 in experiment [2] was not below 0.4 µM; in experiment [1], not above 0.01 µM.

Take `C=CC(=O)Nc1cccc(Oc2nc(Nc3ccc(NCCOC)cc3)ncc2OC)c1` [Compound I-32a, N-(3-(5-methoxy-2-(4-(2-methoxyethylamino)phenylamino)pyrimidin-4-yloxy)phenyl)acrylamide]: the figures for the IC50 in experiment [2] and in experiment [1] were not below 0.4 µM and not above 0.01 µM, respectively.

With `C=CC(=O)Nc1cccc(Oc2nc(Nc3ccc(N(C)CCOC)nc3)ncc2OC)c1` [Compound I-33a, N-(3-(5-methoxy-2-(6-((2-methoxyethyl)(methyl)amino)pyridin-3-ylamino)pyrimidin-4-yloxy)phenyl)acrylamide], the values for the IC50 in experiment [2] and in experiment [1] were not below 0.4 µM and 0.01 to 0.1 µM, respectively.

For `C=CC(=O)Nc1cccc(Oc2nc(Nc3ccc4c(c3)CCN4CCOC)ncc2OC)c1` [Compound I-34a, N-(3-(5-methoxy-2-(1-(2-methoxyethyl)indolin-5-ylamino)pyrimidin-4-yloxy)phenyl)acrylamide], the results for the IC50 in experiment [2] and in experiment [1] were not below 0.4 µM and not above 0.01 µM, respectively.

For `C=CC(=O)Nc1cccc(Oc2nc(Nc3ccc(N(C)[C@H]4CCN(CCOC)C4)cc3OC)ncc2OC)c1` [Compound I-55a, (S)—N-(3-(5-methoxy-2-(2-methoxy-4-((1-(2-methoxyethyl)pyrrolidin-3-yl)(methyl)amino)phenylamino)pyrimidin-4-yloxy)phenyl)acrylamide], the IC50 in experiment [1] is not below 0.1 µM.

With `C=CC(=O)Nc1cccc(Oc2nc(Nc3ccc4c(c3)CCN4S(C)(=O)=O)ncc2OC)c1` [Compound I-59a, N-(3-(5-methoxy-2-(1-(methylsulfonyl)indolin-5-ylamino)pyrimidin-4-yloxy)phenyl)acrylamide], in experiment [1], the IC50 was not above 0.01 µM.

Consider `C=CC(=O)Nc1cccc(Oc2nc(Nc3ccc(N(C)[C@H]4CCN(S(C)(=O)=O)C4)cc3)ncc2OC)c1` [Compound I-60a, (S)—N-(3-(5-methoxy-2-(4-(methyl(1-(methylsulfonyl)pyrrolidin-3-yl)amino)phenylamino)pyrimidin-4-yloxy)phenyl)acrylamide], for which, in experiment [1], the IC50 is not above 0.01 µM.

Consider `C=CC(=O)Nc1cccc(Oc2nc(Nc3ccc(N[C@H]4CCN(C(C)=O)C4)cc3)nc3[nH]ccc23)c1` [Compound I-61a, (S)—N-(3-(2-(4-(1-acetylpyrrolidin-3-ylamino)phenylamino)-7H-pyrrolo[2,3-d]pyrimidin-4-yloxy)phenyl)acrylamide], for which, in experiment [1], the IC50 is not above 0.01 µM.

For the compound `C=CC(=O)Nc1cccc(Oc2nc(Nc3ccc(N[C@H]4CCN(S(C)(=O)=O)C4)cc3)nc3[nH]ccc23)c1` [Compound I-62a, (S)—N-(3-(2-(4-(1-(methylsulfonyl)pyrrolidin-3-ylamino)phenylamino)-7H-pyrrolo[2,3-d]pyrimidin-4-yloxy)phenyl)acrylamide], in experiment [1], the IC50 is not above 0.01 µM.

`C=CC(=O)Nc1cccc(Oc2nc(Nc3ccc(N(C)[C@H]4CCN(S(C)(=O)=O)C4)cc3)nc3[nH]ccc23)c1` [Compound I-63a, (S)—N-(3-(2-(4-(methyl(1-(methylsulfonyl)pyrrolidin-3-yl)amino)phenylamino)-7H-pyrrolo[2,3-d]pyrimidin-4-yloxy)phenyl)acrylamide]: the IC50 in experiment [1] is not above 0.01 µM.

For `C=CC(=O)Nc1cccc(Oc2nc(Nc3ccc(N(C)[C@H]4CCN(C(C)=O)C4)cc3)nc3[nH]ccc23)c1` [Compound I-64a, (S)—N-(3-(2-(4-((1-acetylpyrrolidin-3-yl)(methyl)amino)phenylamino)-7H-pyrrolo[2,3-d]pyrimidin-4-yloxy)phenyl)acrylamide], the IC50 in experiment [1] is not above 0.01 µM.

`C=CC(=O)Nc1cccc(Oc2nc(Nc3ccc(N4CCN(CCOC)CC4)cc3)nc3[nH]cnc23)c1` [Compound I-65a, N-(3-(2-(4-(4-(2-methoxyethyl)piperazin-1-yl)phenylamino)-9H-purin-6-yloxy)phenyl)acrylamide]: the IC50 in experiment [1] was not above 0.01 µM.

On to `C=CC(=O)Nc1cccc(Oc2nc(Nc3ccc(N[C@H]4CCN(C(C)=O)C4)cc3)ncc2OC)c1` [Compound I-66a, (S)—N-(3-(2-(4-((1-acetylpyrrolidin-3-yl)amino)phenylamino)-5-methoxypyrimidin-4-yloxy)phenyl)acrylamide], for which, in experiment [1], the IC50 was not above 0.01 µM.

As for `C=CC(=O)Nc1cccc(Oc2nc(Nc3ccc(N[C@H]4CCN(CCOC)C4)cc3)nc3[nH]cnc23)c1` [Compound I-67a, (S)—N-(3-(2-(4-(1-(2-methoxyethyl)pyrrolidin-3-ylamino)phenylamino)-9H-purin-6-yloxy)phenyl)acrylamide], in experiment [1], the IC50 fell in the range of 0.01 to 0.1 µM.

Take `C=CC(=O)Nc1cccc(Oc2nc(Nc3ccc(N4CCN(C(C)=O)CC4)cc3)nc3[nH]cnc23)c1` [Compound I-68a, N-(3-(2-(4-(4-acetylpiperazin-1-yl)phenylamino)-9H-purin-6-yloxy)phenyl)acrylamide]: in experiment [1], the IC50 lay within 0.01 to 0.1 µM.

With `C=CC(=O)Nc1cccc(Oc2nc(Nc3ccc(N4CCN(CCS(C)(=O)=O)CC4)cc3)nc3[nH]cnc23)c1` [Compound I-69a, N-(3-(2-(4-(4-(2-(methylsulfonyl)ethyl)piperazin-1-yl)phenylamino)-9H-purin-6-yloxy)phenyl)acrylamide], the IC50 in experiment [1] lay within 0.01 to 0.1 µM.

For the compound `C=CC(=O)Nc1cccc(Oc2nc(Nc3ccc4c(c3)CS(=O)(=O)N4)ncc2OC)c1` [Compound I-70a, N-(3-((2-((2,2-dioxido-1,3-dihydrobenzo[c]isothiazol-5-yl)amino)-5-methoxypyrimidin-4-yl)oxy)phenyl)acrylamide], the IC50 in experiment [1] is 0.01 to 0.1 µM.

`C=CC(=O)Nc1cccc(Oc2nc(Nc3ccc(N(C)[C@H]4CCN(S(C)(=O)=O)C4)cc3)nc3[nH]cnc23)c1` [Compound I-71a, (S)—N-(3-(2-(4-(methyl(1-(methylsulfonyl)pyrrolidin-3-yl)amino)phenylamino)-9H-purin-6-yloxy)phenyl)acrylamide]: the IC50 in experiment [1] was not above 0.01 µM.

For `C=CC(=O)Nc1cccc(Oc2nc(Nc3ccc(N(C)[C@@H]4CCN(C(C)=O)C4)cc3)ncc2OC)c1` [Compound I-72a, (R)—N-(3-(2-(4-((1-acetylpyrrolidin-3-yl)(methyl)amino)phenylamino)-5-methoxypyrimidin-4-yloxy)phenyl)acrylamide], the IC50 in experiment [1] is not above 0.01 µM.

The record behind these values is patent US9920074B2 (ACEA BIOSCIENCES INC., priority 2013, dated 2018).
